In ChEMBL document CHEMBL1681651, “A broad spectrum anticancer nucleoside with selective toxicity against human colon cells in vitro” (2011):

Columns and labels:
Assay type in all cases: functional
HCT-15 [1] = assay: Growth inhibition of human HCT15 cells assessed as cell growth at 1 uM after 48 hrs by SRB assay; conditions: HCT-15, 48 h, read-out: Activity
SK-MEL-2 [2] = assay: Growth inhibition of human SK-MEL-2 cells assessed as cell growth at 100 uM after 48 hrs by SRB assay; conditions: SK-MEL-2, 48 h, read-out: Activity
MCF7 = assay: Growth inhibition of human MCF7 cells assessed as cell growth at 10 uM after 48 hrs by SRB assay; conditions: MCF7, 48 h, read-out: Activity
SN12C = assay: Growth inhibition of human SN12C cells assessed as cell growth at 0.1 uM after 48 hrs by SRB assay; conditions: read-out: Activity
HCT-15 [3] = assay: Growth inhibition of human HCT15 cells assessed as cell growth at 100 uM after 48 hrs by SRB assay; conditions: HCT-15, 48 h, read-out: Activity
UACC-62 = assay: Growth inhibition of human UACC62 cells assessed as cell growth at 100 uM after 48 hrs by SRB assay; conditions: UACC-62, 48 h, read-out: Activity
UO-31 = assay: Growth inhibition of human UO31 cells assessed as cell growth at 1 uM after 48 hrs by SRB assay; conditions: UO-31, 48 h, read-out: Activity
SK-MEL-2 [4] = assay: Growth inhibition of human SK-MEL-2 cells assessed as cell growth at 1 mM after 48 hrs by SRB assay; conditions: SK-MEL-2, 48 h, read-out: Activity
HCC 2998 [5] = assay: Growth inhibition of human HCC2998 cells after 48 hrs by […] growth inhibition assay; conditions: HCC 2998, 48 h
PC-3 = assay: Growth inhibition of human PC3 cells after 48 hrs by […] growth inhibition assay; conditions: PC-3, 48 h
OVCAR-3 [6] = assay: Growth inhibition of human OVCAR3 cells assessed as cell growth at 100 uM after 48 hrs by SRB assay; conditions: OVCAR-3, 48 h, read-out: Activity
HCC 2998 [7] = assay: Growth inhibition of human HCC2998 cells assessed as cell growth at 1 mM after 48 hrs by SRB assay; conditions: HCC 2998, 48 h, read-out: Activity
EKVX [8] = assay: Growth inhibition of human EKVX cells after 48 hrs by […] growth inhibition assay
Malme-3M = assay: Growth inhibition of human MALME-3M cells assessed as cell growth at 100 uM after 48 hrs by SRB assay; conditions: read-out: Activity
SF-295 = assay: Growth inhibition of human SF295 cells assessed as cell growth at 100 uM after 48 hrs by SRB assay; conditions: SF-295, 48 h, read-out: Activity
HOP-62 = assay: Growth inhibition of human HOP62 cells assessed as cell growth at 1 mM after 48 hrs by SRB assay; conditions: HOP-62, 48 h, read-out: Activity
CCRF-CEM = assay: Growth inhibition of human CCRF-CEM cells after 48 hrs by […] growth inhibition assay
SF-539 = assay: Growth inhibition of human SF539 cells assessed as cell growth at 10 uM after 48 hrs by SRB assay; conditions: SF-539, 48 h, read-out: Activity
NCI-H23 = assay: Growth inhibition of human NCI-H23 cells assessed as cell growth at 1 uM after 48 hrs by SRB assay; conditions: NCI-H23, 48 h, read-out: Activity
[9] = Growth inhibition of human […] cells assessed as cell growth at 0.1 uM after 48 hrs by SRB assay; conditions: read-out: Activity
OVCAR-8 [10] = assay: Growth inhibition of human OVCAR8 cells assessed as cell growth at 100 uM after 48 hrs by SRB assay; conditions: OVCAR-8, 48 h, read-out: Activity
DU-145 [11] = assay: Growth inhibition of human DU145 cells assessed as cell growth at 10 uM after 48 hrs by SRB assay; conditions: DU-145, 48 h, read-out: Activity
A549 = assay: Growth inhibition of human A549 cells assessed as cell growth at 1 uM after 48 hrs by SRB assay; conditions: A549, 48 h, read-out: Activity
HCT-116 = assay: Growth inhibition of human HCT116 cells assessed as cell growth at 10 uM after 48 hrs by SRB assay; conditions: HCT-116, 48 h, read-out: Activity
OVCAR-3 [12] = assay: Growth inhibition of human OVCAR3 cells assessed as cell growth at 0.1 uM after 48 hrs by SRB assay; conditions: OVCAR-3, 48 h, read-out: Activity
CAKI-1 = assay: Growth inhibition of human Caki1 cells assessed as cell growth at 10 uM after 48 hrs by SRB assay; conditions: CAKI-1, 48 h, read-out: Activity
EKVX [13] = assay: Growth inhibition of human EKVX cells assessed as cell growth at 1 uM after 48 hrs by SRB assay; conditions: read-out: Activity
EKVX [14] = assay: Growth inhibition of human EKVX cells assessed as cell growth at 0.1 uM after 48 hrs by SRB assay; conditions: read-out: Activity
DU-145 [15] = assay: Growth inhibition of human DU145 cells assessed as cell growth at 1 mM after 48 hrs by SRB assay; conditions: DU-145, 48 h, read-out: Activity
MDA-MB-435 = assay: Growth inhibition of human MDA-MB-435 cells after 48 hrs by SRB assay; conditions: MDA-MB-435, 48 h
COLO 205 = assay: Growth inhibition of human COLO205 cells assessed as cell growth at 10 uM after 48 hrs by SRB assay; conditions: COLO 205, 48 h, read-out: Activity
HOP-92 = assay: Growth inhibition of human HOP92 cells assessed as cell growth at 1 uM after 48 hrs by SRB assay; conditions: HOP-92, 48 h, read-out: Activity
OVCAR-8 [16] = assay: Growth inhibition of human OVCAR8 cells assessed as cell growth at 0.1 uM after 48 hrs by SRB assay; conditions: OVCAR-8, 48 h, read-out: Activity
NCI-H226 = assay: Growth inhibition of human NCI-H226 cells after 48 hrs by […] growth inhibition assay; conditions: NCI-H226, 48 h
[17] = read-out: LC50 (the source's name)
[18] = read-out: pLC50 (the source's name) (converted)

CCOC(=O)C[C@H]1[C@@H](O[Si](C)(C)C(C)(C)C)[C@H](n2cnc3c(NC(=O)Nc4ccccc4)ncnc32)O[C@@H]1CNC(=O)NC
growth at 1 µM (HCT-15 [1]): 96%
growth at 100 µM (SK-MEL-2 [2]): 32%
growth at 10 µM (MCF7): 89%
growth at 0.1 µM (SN12C): 101%
growth at 100 µM (HCT-15 [3]): 47%
growth at 100 µM (UACC-62): 82%
growth at 1 µM (UO-31): 87%
growth at 1000 µM (SK-MEL-2 [4]): -30%
GI50 (HCC 2998 [5]; read-out: GI50): > 100 µM
CC50 (HCC 2998 [5]; [17]): > 100 µM
TGI (HCC 2998 [5]; read-out: TGI): > 100 µM
GI50 (HCC 2998 [5]; read-out: pGI50 (converted)): > 100 µM
CC50 (HCC 2998 [5]; [18]): > 100 µM
TGI (HCC 2998 [5]; read-out: pTGI (converted)): > 100 µM
GI50 (PC-3; read-out: GI50): 2.25 µM
CC50 (PC-3; [17]): 78.4 µM
TGI (PC-3; read-out: TGI): 48.5 µM
GI50 (PC-3; read-out: pGI50 (converted)): 2.24 µM
CC50 (PC-3; [18]): 12.6 µM
TGI (PC-3; read-out: pTGI (converted)): 4.9 µM
growth at 100 µM (OVCAR-3 [6]): 16%
growth at 1000 µM (HCC 2998 [7]): 62%
GI50 (EKVX [8]; read-out: GI50): 17.7 µM
CC50 (EKVX [8]; [17]): > 100 µM
TGI (EKVX [8]; read-out: TGI): > 100 µM
GI50 (EKVX [8]; read-out: pGI50 (converted)): 17.8 µM
CC50 (EKVX [8]; [18]): > 100 µM
TGI (EKVX [8]; read-out: pTGI (converted)): > 100 µM
growth at 100 µM (Malme-3M): 50%
growth at 100 µM (SF-295): 38%
growth at 1000 µM (HOP-62): -65%
GI50 (CCRF-CEM; read-out: GI50): 6.69 µM
LC50 (lethal concentration, 50% net cell kill) (CCRF-CEM; read-out: LC50): > 100 µM
TGI (CCRF-CEM; read-out: TGI): 88.6 µM
GI50 (CCRF-CEM; read-out: pGI50 (converted)): 6.76 µM
LC50 (lethal concentration, 50% net cell kill) (CCRF-CEM; read-out: pLC50 (converted)): > 100 µM
TGI (CCRF-CEM; read-out: pTGI (converted)): 89.1 µM
growth at 10 µM (SF-539): 103%
growth at 1 µM (NCI-H23): 100%
growth at 0.1 µM [9]: 77%
growth at 100 µM (OVCAR-8 [10]): 29%
growth at 10 µM (DU-145 [11]): 110%
growth at 1 µM (A549): 103%
growth at 10 µM (HCT-116): 78%
growth at 0.1 µM (OVCAR-3 [12]): 114%
growth at 10 µM (CAKI-1): 99%
growth at 1 µM (EKVX [13]): 90%
growth at 0.1 µM (EKVX [14]): 92%
growth at 1000 µM (DU-145 [15]): -59%
GI50 (MDA-MB-435; read-out: GI50): 6.21 µM
LC50 (MDA-MB-435; read-out: LC50): > 100 µM
TGI (MDA-MB-435; read-out: TGI): > 100 µM
GI50 (MDA-MB-435; read-out: pGI50 (converted)): 6.17 µM
LC50 (MDA-MB-435; read-out: pLC50 (converted)): > 100 µM
TGI (MDA-MB-435; read-out: pTGI (converted)): > 100 µM
growth at 10 µM (COLO 205): 93%
growth at 1 µM (HOP-92): -1%
growth at 0.1 µM (OVCAR-8 [16]): 99%
GI50 (NCI-H226; read-out: GI50): > 100 µM
CC50 (NCI-H226; [17]): > 100 µM
TGI (NCI-H226; read-out: TGI): > 100 µM
GI50 (NCI-H226; read-out: pGI50 (converted)): > 100 µM
CC50 (NCI-H226; [18]): > 100 µM
TGI (NCI-H226; read-out: pTGI (converted)): > 100 µM
